Results on five compounds are retold here after patent US7183280B2, “Bicyclic imidazole derivatives, the preparation thereof and their use as pharmaceutical compositions” (Boehringer Ingelheim International GmbH, priority 2004, dated 2007).

A word on the IC50: it is the concentration needed to halve the response being measured.

The subject of the first series is rats. The series is described as follows: Tolerability in rats after oral administration. It is filed as in vivo. Conditions: oral administration of 10 mg/kg.
For the compound `CC#CCn1c(N2CCC[C@@H](N)C2)nc2c1c(=O)n(Cc1nc3ccccc3c(C)[n+]1[O-])c(=O)n2C` [Example 1, 1-[(4-methyl-3-oxy-quinazolin-2-yl)methyl]-3-methyl-7-(2-butyn-1-yl)-8-((R)-3-amino-piperidin-1-yl)-xanthine], the toxic side effects entry is recorded as “no toxic side effects could be detected”.

In a further series the target is T1, DPP-IV (Homo sapiens, UniProt P27487).
T1 construct: an extract of the human colon carcinoma cell line Caco-2 is used as the DPP IV source; endogenous in cells; host or cells: Caco-2 (human colon carcinoma), differentiated to induce DPP-IV expression; Nonidet-P40 solubilised extract
T1 sequence (P27487 whole entry): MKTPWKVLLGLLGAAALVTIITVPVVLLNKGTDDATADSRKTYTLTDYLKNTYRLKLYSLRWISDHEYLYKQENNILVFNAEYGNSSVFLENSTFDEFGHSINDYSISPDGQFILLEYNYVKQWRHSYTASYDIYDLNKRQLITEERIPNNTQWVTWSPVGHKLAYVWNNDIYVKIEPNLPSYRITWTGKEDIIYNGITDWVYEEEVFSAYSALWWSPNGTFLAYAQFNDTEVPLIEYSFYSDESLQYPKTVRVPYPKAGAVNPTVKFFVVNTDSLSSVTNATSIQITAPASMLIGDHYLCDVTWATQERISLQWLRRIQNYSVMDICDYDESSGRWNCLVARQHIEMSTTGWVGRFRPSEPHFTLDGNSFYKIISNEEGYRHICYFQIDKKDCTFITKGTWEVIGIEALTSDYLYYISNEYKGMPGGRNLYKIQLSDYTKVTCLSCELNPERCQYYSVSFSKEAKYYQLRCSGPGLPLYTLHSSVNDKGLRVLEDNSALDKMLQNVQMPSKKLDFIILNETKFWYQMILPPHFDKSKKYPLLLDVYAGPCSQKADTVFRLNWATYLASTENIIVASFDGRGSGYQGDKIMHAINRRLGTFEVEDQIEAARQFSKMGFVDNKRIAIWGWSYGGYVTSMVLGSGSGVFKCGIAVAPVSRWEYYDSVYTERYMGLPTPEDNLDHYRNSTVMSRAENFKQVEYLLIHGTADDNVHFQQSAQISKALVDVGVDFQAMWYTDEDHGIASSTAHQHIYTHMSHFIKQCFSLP
The series is described as follows: DPP-IV assay with Caco-2 cell extract, AFC substrate, fluorescence. Conditions: extract of human colon carcinoma cell line Caco-2 as DPP IV source; AFC substrate 100 μM; 60 minutes, ambient temperature; read-out: DPP IV inhibition IC50. It is filed as biochemical. As for the experimental part: The differentiation of the cells in order to induce the DPP-IV expression was carried out in accordance with the description by Reiher et al. in an article entitled “Increased expression of intestinal cell line Caco-2”, which appeared in Proc. Natl. Acad. Sci. Vol. 90, pp. 5757–5761 (1993). The cell extract was obtained from cells solubilised in a buffer (10 mM Tris HCl, 0.15 M NaCl, 0.04 t.i.u. aprotinin, 0.5% Nonidet-P40, pH 8.0) by centrifugation at 35,000 g for 30 minutes at 4° C. (to remove cell debris).
The DPP-IV assay was carried out as follows:
50 μl of substrate solution (AFC; AFC is amido-4-trifluoromethylcoumarin), final concentration 100 μM, were placed in black microtitre plates. 20 μl of assay buffer (final concentrations 50 mM Tris HCl pH 7.8, 50 mM NaCl, 1% DMSO) was pipetted in. The reaction was started by the addition of 30 μl of solubilised Caco-2 protein (final concentration 0.14 μg of protein per well). The test substances under investigation were typically added prediluted to 20 μl, while the volume of assay buffer was then reduced accordingly. The reaction was carried out at ambient temperature, the incubation period was 60 minutes. Then the fluorescence was measured in a Victor 1420 Multilabel Counter, with the excitation wavelength at 405 nm and the emission wavelength at 535 nm. Dummy values (corresponding to 0% activity) were obtained in mixtures with no Caco-2 protein (volume replaced by assay buffer), control values (corresponding to 100% activity) were obtained in mixtures without any added substance. The potency of the test substances in question, expressed as IC50 values, were calculated from dosage/activity curves consisting of 11 measured points in each case.
For the compound `CC#CCn1c(N2CCC[C@@H](N)C2)nc2c1c(=O)n(Cc1c3ccccc3cc(C)[n+]1[O-])c(=O)n2C` [1(2), 1-[(3-methyl-2-oxy-isoquinolin-1-yl)methyl]-3-methyl-7-(2-butyn-1-yl)-8-((R)-3-amino-piperidin-1-yl)-xanthine], the IC50 stood at 4 nM.

As to `CC#CCn1c(N2CCC[C@@H](N)C2)nc2c1c(=O)n(Cc1nc3ccccc3c[n+]1[O-])c(=O)n2C` [1(4), 1-[(3-oxy-quinazolin-2-yl)methyl]-3-methyl-7-(2-butyn-1-yl)-8-((R)-3-amino-piperidin-1-yl)-xanthine], the half-maximal inhibitory concentration (IC50) is 2 nM.

In the case of `CC#CCn1c(N2CCC[C@@H](N)C2)nc2c1c(=O)n(Cc1c3ccccc3c3ccccc3[n+]1[O-])c(=O)n2C` [1(3), 1-[(5-oxy-phenanthridin-6-yl)methyl]-3-methyl-7-(2-butyn-1-yl)-8-((R)-3-amino-piperidin-1-yl)-xanthine], the concentration for half-maximal inhibition (IC50) worked out at 6 nM.

For the compound `CC#CCn1c(N2CCC[C@@H](N)C2)nc2c1c(=O)n(Cc1nc3ccccc3c(C)[n+]1[O-])c(=O)n2C` [Example 1, 1-[(4-methyl-3-oxy-quinazolin-2-yl)methyl]-3-methyl-7-(2-butyn-1-yl)-8-((R)-3-amino-piperidin-1-yl)-xanthine], the 50% inhibitory concentration (IC50) turned out to be 2 nM.

Regarding “1-[(1-oxy-quinolin-2-yl)methyl]-3-methyl-7-(2-butyn-1-yl)-8-((R)-3-amino-piperidin-1-yl)-xanthine [1(1)]”, the half-maximal inhibitory concentration (IC50) came to 1 nM.
